Tested on: B. longum AH1205
Assay: Antibiotic sensitivity, minimum inhibitory concentration (MIC)
Format: cell-based, Bifidobacterium longum
Conditions: against B. longum AH1205

minimum inhibitory concentration (MIC)	Structure (SMILES)
0.032	CCC[C@@H]1C[C@@H](C(=O)N[C@@H]([C@H]2O[C@H](SC)[C@H](O)[C@@H](O)[C@H]2O)[C@H](C)Cl)N(C)C1 [clindamycin]
> 256	Cc1ncc([N+](=O)[O-])n1CCO [metronidazole]

Structure (SMILES)	minimum inhibitory concentration (MIC)
CN[C@H](CC(C)C)C(=O)N[C@H]1C(=O)N[C@@H](CC(N)=O)C(=O)N[C@H]2C(=O)N[C@H]3C(=O)N[C@H](C(=O)N[C@H](C(=O)O)c4cc(O)cc(O)c4-c4cc3ccc4O)[C@H](O)c3ccc(c(Cl)c3)Oc3cc2cc(c3O[C@@H]2O[C@H](CO)[C@@H](O)[C@H](O)[C@H]2O[C@H]2C[C@](C)(N)[C@H](O)[C@H](C)O2)Oc2ccc(cc2Cl)[C@H]1O [vancomycin]	0.75
